Key:
Assay type in all cases: in vivo
[1] = system: Echinochloa crus-galli (L.) Beauv. var. crusgalli (Ec); assay: Test for herbicidal effect by upland foliage treatment (Test Example 3); details: 100 g/10 a active ingredient, examined at 14th day
Procedure: Test For Herbicidal Effect By Upland Foliage Treatment
An upland field soil was filed in a plastic pot of 80 cm^2. Seeds of Echinochloa crus-galli (L.) Beauv. var. crusgalli (Ec) were sowed. Breeding was made in a greenhouse for 2 weeks. Wettable powders produced in accordance with the Formulation 1 were diluted with water and sprayed on the whole foliage of plants from above the plants using a small sprayer in an amount of 100 liters per 10 ares so that the amount of each active ingredient became 100 g per 10 ares. Then, breeding was made in the greenhouse, and the herbicidal effect of each wettable powder was examined at the 14th day from the treatment in accordance with the standard shown in Table 40.

[2] = system: Setaria viridis (L.) Beauv. (Se); assay: Test for herbicidal effect by upland field soil treatment (Test Example 2), Se
Procedure: (§1) [table] <Test Example 2> Test For Herbicidal Effect By Upland Field Soil Treatment An upland field soil was filed in a plastic pot of 80 cm^2. Seeds of Echinochloa crus-galli (L.) Beauv. var. crusgall (Ec) and Setaria viridis (L.) Beauv. (Se) were sowed, followed by covering with the same soil. Wettable powders produced in accordance with the Formulation 1 were diluted with water and sprayed uniformly: on the soil surface using a small sprayer, in an amount of 100 liters per 10 ares so that the amount of each active ingredient became 100 g per 10 ares. Then, breeding was made in a greenhouse, and the herbicidal effect of each wettable powder was examined at the 21st day from the treatment in accordance with the standard shown in Table 40.

[3] = system: Echinochloa crus-galli (L.) Beauv. var. crusgall (Ec); assay: Test for herbicidal effect by upland field soil treatment (Test Example 2), Ec
Procedure: as §1

[4] = system: Echinochloa oryzicola Vasing. (Eo); assay: Test for herbicidal effect by paddy field soil treatment (Test Example 1); details: application amount (active ingredient) 100 g/10 a, examined at the 21st day from the treatment, index per Table 40
Procedure: <Test Example 1> Test For Herbicidal Effect By Paddy Field Soil Treatment A paddy field soil was filled in a plastic pot of 100 cm^2 and subjected to puddling. Then, seeds of Echinochloa oryzicola Vasing. (Eo) were sowed and water was filled in a depth of 3 cm. Next day, wettable powders produced in accordance with the Formulation 1 were diluted with water and dropped on the water surface. The application amount of each wettable powder was 100 g per 10 ares in terms of the active ingredient. Then, breeding was made in a greenhouse, and the herbicidal effect of each wettable powder was examined at the 21st day from the treatment in accordance with the standard shown in Table 40. [table]

[5] = application amount (active ingredient) 100 g/10 a, examined at the 21st day from the treatment, index per Table 40
[6] = 100 g/10 a active ingredient, examined at 21st day

Compound | Herbicidal effect to Ec [1] | Herbicidal effect to Se [2, 5] | Herbicidal effect to Ec [3, 5] | Herbicidal effect to Eo [4] | Herbicidal effect to Ec [3, 6] | Herbicidal effect to Se [2, 6]
CCCC1(C)CC(S(=O)(=O)Cc2c(F)cccc2F)=NO1 (centres unmarked) [Compound 1-366] | 4 (A herbicidal effect or phytotoxicity of 70% to less than 90%) | 5 (A herbicidal effect or phytotoxicity of 90% or more) | 5 (A herbicidal effect or phytotoxicity of 90% or more) | 5 (A herbicidal effect or phytotoxicity of 90% or more) | – | –
COc1cccc(CS(=O)(=O)C2=NOC(C)(C)C2)c1 [Compound 1-41] | – | 5 (A herbicidal effect or phytotoxicity of 90% or more) | 5 (A herbicidal effect or phytotoxicity of 90% or more) | 5 (A herbicidal effect or phytotoxicity of 90% or more) | – | –
C#CCOC(=O)c1ccccc1CS(=O)(=O)C1=NOC(C)(C)C1 [Compound 1-600] | – | – | – | 5 (A herbicidal effect or phytotoxicity of 90% or more) | 5 (A herbicidal effect or phytotoxicity of 90% or more) | –
CC(c1ccccc1C(F)(F)F)S(=O)(=O)C1=NOC(C)(C)C1 (centres unmarked) [Compound 1-575] | – | – | – | 5 (A herbicidal effect or phytotoxicity of 90% or more) | – | –
CCC1(C)CC(S(=O)(=O)Cc2ccc(C#N)cc2)=NO1 (centres unmarked) [Compound 1-329] | – | 5 (A herbicidal effect or phytotoxicity of 90% or more) | 5 (A herbicidal effect or phytotoxicity of 90% or more) | 5 (A herbicidal effect or phytotoxicity of 90% or more) | – | –
COc1ccc(CS(=O)(=O)C2=NOC(C)(C)C2)cc1 [Compound 1-42] | – | 4 (A herbicidal effect or phytotoxicity of 70% to less than 90%) | 5 (A herbicidal effect or phytotoxicity of 90% or more) | 5 (A herbicidal effect or phytotoxicity of 90% or more) | – | –
CC(C)OC(=O)c1cccc(Cl)c1CS(=O)(=O)C1=NOC(C)(C)C1 [Compound 1-621] | – | – | – | 5 (A herbicidal effect or phytotoxicity of 90% or more) | 5 (A herbicidal effect or phytotoxicity of 90% or more) | 4 (A herbicidal effect or phytotoxicity of 70% to less than 90%)
CCC1(C)CC(S(=O)(=O)Cc2c(C)ccc(C)c2C)=NO1 (centres unmarked) [Compound 1-617] | – | – | – | 5 (A herbicidal effect or phytotoxicity of 90% or more) | 5 (A herbicidal effect or phytotoxicity of 90% or more) | 5 (A herbicidal effect or phytotoxicity of 90% or more)
Cc1ccc(C)c(CS(=O)(=O)C2=NOC(C)(C)C2)c1C [Compound 1-616] | 5 (A herbicidal effect or phytotoxicity of 90% or more) | – | – | 5 (A herbicidal effect or phytotoxicity of 90% or more) | 5 (A herbicidal effect or phytotoxicity of 90% or more) | –
CC1(C)CC(S(=O)(=O)Cc2cc([N+](=O)[O-])cc([N+](=O)[O-])c2)=NO1 [Compound 1-546] | – | – | – | 5 (A herbicidal effect or phytotoxicity of 90% or more) | 5 (A herbicidal effect or phytotoxicity of 90% or more) | 4 (A herbicidal effect or phytotoxicity of 70% to less than 90%)
O=S(=O)(Cc1c(F)cccc1F)C1=NOC2CCCCC12 (centres unmarked) [Compound 1-387] | – | 4 (A herbicidal effect or phytotoxicity of 70% to less than 90%) | 5 (A herbicidal effect or phytotoxicity of 90% or more) | 5 (A herbicidal effect or phytotoxicity of 90% or more) | – | –
CCOC(=O)c1cccc(Cl)c1CS(=O)(=O)C1=NOC(C)(C)C1 [Compound 1-619] | – | – | – | 5 (A herbicidal effect or phytotoxicity of 90% or more) | 5 (A herbicidal effect or phytotoxicity of 90% or more) | 4 (A herbicidal effect or phytotoxicity of 70% to less than 90%)
CCC1(C)CC(S(=O)(=O)Cc2ccc(Cl)cc2)=NO1 (centres unmarked) [Compound 1-194] | – | 5 (A herbicidal effect or phytotoxicity of 90% or more) | 5 (A herbicidal effect or phytotoxicity of 90% or more) | 5 (A herbicidal effect or phytotoxicity of 90% or more) | – | –
CC12CCCCC1C(S(=O)(=O)Cc1c(F)cccc1F)=NO2 (centres unmarked) [Compound 1-493] | – | 4 (A herbicidal effect or phytotoxicity of 70% to less than 90%) | 5 (A herbicidal effect or phytotoxicity of 90% or more) | 5 (A herbicidal effect or phytotoxicity of 90% or more) | – | –
O=S(=O)(Cc1c(F)cccc1F)C1=NOCC1 [Compound 1-533] | – | – | – | 5 (A herbicidal effect or phytotoxicity of 90% or more) | – | –
O=S(=O)(Cc1c(F)cccc1F)C1=NOC2CCCCCC12 (centres unmarked) [Compound 1-388] | – | 5 (A herbicidal effect or phytotoxicity of 90% or more) | 5 (A herbicidal effect or phytotoxicity of 90% or more) | 5 (A herbicidal effect or phytotoxicity of 90% or more) | – | –
CC1(C)CC(S(=O)(=O)Cc2ccc(F)cc2C(F)(F)F)=NO1 [Compound 1-551] | – | – | – | 5 (A herbicidal effect or phytotoxicity of 90% or more) | 5 (A herbicidal effect or phytotoxicity of 90% or more) | 5 (A herbicidal effect or phytotoxicity of 90% or more)
CCCCOc1cccc(F)c1CS(=O)(=O)C1=NOC(C)(C)C1 [Compound 1-571] | 5 (A herbicidal effect or phytotoxicity of 90% or more) | – | – | 5 (A herbicidal effect or phytotoxicity of 90% or more) | 5 (A herbicidal effect or phytotoxicity of 90% or more) | –
COC(=O)c1cccc(Cl)c1CS(=O)(=O)C1=NOC(C)(C)C1 [Compound 1-618] | – | – | – | 5 (A herbicidal effect or phytotoxicity of 90% or more) | 5 (A herbicidal effect or phytotoxicity of 90% or more) | 5 (A herbicidal effect or phytotoxicity of 90% or more)
CS(=O)(=O)C1=NOC2(CC2)C1 [Compound 2-28] | – | – | – | 5 (A herbicidal effect or phytotoxicity of 90% or more) | – | –
CC1(C)CC(S(=O)(=O)Cc2ccc(F)cc2)=NO1 [Compound 1-34] | – | 5 (A herbicidal effect or phytotoxicity of 90% or more) | 5 (A herbicidal effect or phytotoxicity of 90% or more) | 5 (A herbicidal effect or phytotoxicity of 90% or more) | – | –
CC1(C)CC(S(=O)(=O)Cc2cccc(F)c2)=NO1 [Compound 1-33] | – | 5 (A herbicidal effect or phytotoxicity of 90% or more) | 5 (A herbicidal effect or phytotoxicity of 90% or more) | 5 (A herbicidal effect or phytotoxicity of 90% or more) | – | –
Fc1cccc(F)c1CSC1=NOC2(CCC2)C1 [Compound 1-381] | – | 4 (A herbicidal effect or phytotoxicity of 70% to less than 90%) | 4 (A herbicidal effect or phytotoxicity of 70% to less than 90%) | 5 (A herbicidal effect or phytotoxicity of 90% or more) | – | –
CCC1(C)CC(S(=O)(=O)Cc2ccccc2F)=NO1 (centres unmarked) [Compound 1-189] | – | 5 (A herbicidal effect or phytotoxicity of 90% or more) | 5 (A herbicidal effect or phytotoxicity of 90% or more) | 5 (A herbicidal effect or phytotoxicity of 90% or more) | – | –
CCC1(C)CC(S(=O)(=O)Cc2ccccc2Br)=NO1 (centres unmarked) [Compound 1-195] | – | 5 (A herbicidal effect or phytotoxicity of 90% or more) | 5 (A herbicidal effect or phytotoxicity of 90% or more) | 5 (A herbicidal effect or phytotoxicity of 90% or more) | – | –
CCC1(C)CC(S(=O)(=O)Cc2ccc(F)cc2)=NO1 (centres unmarked) [Compound 1-191] | – | 5 (A herbicidal effect or phytotoxicity of 90% or more) | 5 (A herbicidal effect or phytotoxicity of 90% or more) | 5 (A herbicidal effect or phytotoxicity of 90% or more) | – | –
COCC1(C)CC([S+]([O-])Cc2c(F)cccc2F)=NO1 (centres unmarked) [Compound 1-396] | – | 5 (A herbicidal effect or phytotoxicity of 90% or more) | 4 (A herbicidal effect or phytotoxicity of 70% to less than 90%) | 5 (A herbicidal effect or phytotoxicity of 90% or more) | – | –
COCC1(C)CC(S(=O)(=O)Cc2c(F)cccc2F)=NO1 (centres unmarked) [Compound 1-397] | 4 (A herbicidal effect or phytotoxicity of 70% to less than 90%) | – | – | 5 (A herbicidal effect or phytotoxicity of 90% or more) | – | –

Reference: patent US6841519B1, “Isoxazoline derivatives and herbicides containing the same as the active ingredient” (Kumiai Chemical Industry Co., Ltd., priority 1999, dated 2005)
